According to patent US5648336A (University of Colorado, priority 1994, dated 1997):
Like-named read-outs stand apart in the source and are kept apart here. Square brackets hold non-standard residues; d marks the D form. Peptide text beside a SMILES is read from it. Oic = O=C(O)[C@@H]1C[C@@H]2CCCC[C@@H]2N1; dIgl = N[C@@H](C(=O)O)C1Cc2ccccc2C1; Igl = N[C@H](C(=O)O)C1Cc2ccccc2C1; Hyp = O=C(O)[C@@H]1C[C@@H](O)CN1; NMeF = CN[C@@H](Cc1ccccc1)C(=O)O; 2Thi = N[C@@H](Cc1cccs1)C(=O)O

Legend:
[1] = target: T1, Human B2 receptors (Homo sapiens, UniProt P30411); assay: Human B2 binding, cloned receptor in CHO cell membranes, 3H-bradykinin
T1 construct: expressed in transfected cells; membranes used
T1 sequence (P30411 1-364 isoform P30411-2): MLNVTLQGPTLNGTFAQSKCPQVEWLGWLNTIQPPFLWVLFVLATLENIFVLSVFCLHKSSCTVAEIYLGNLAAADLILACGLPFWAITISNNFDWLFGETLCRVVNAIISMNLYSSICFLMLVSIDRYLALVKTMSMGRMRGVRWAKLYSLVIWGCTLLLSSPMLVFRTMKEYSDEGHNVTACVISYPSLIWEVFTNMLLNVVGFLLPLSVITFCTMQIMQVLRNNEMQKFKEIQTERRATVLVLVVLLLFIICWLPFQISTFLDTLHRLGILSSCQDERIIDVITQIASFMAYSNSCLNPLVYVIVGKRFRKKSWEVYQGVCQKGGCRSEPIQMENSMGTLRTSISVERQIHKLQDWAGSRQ
Text: Human B2 receptors were cloned and expressed in Chinese hamster ovary cells. RNA was isolated from human lung fibroblasts (CCD-16 LU obtained from the ATCC) using the method of Chirgwin et al (Biochemistry 18:5294 (1979)). The RNA was transcribed into cDNA using MMLV reverse transcriptase, the primer […] and the procedure of Maniatis (Molecular Cloning Cold Spring Harbor Laboratory (1982)). The human B2 receptor cDNA was selectively amplified using nested PCR. The first round PCR used the two primers […] and […] and Taq DNA polymerase (Promega). Twenty-five rounds of PCR were done using the following conditions: 94° C., 1 minute for denaturation, 50° C., 1 minute for annealing followed by 72° C., 3 minutes for extension. Excess primers were removed with a Centricon 30 miniconcentrator. A portion of this first round reaction was used as a template in a second round of PCR using the following primers […] and […]. The number of rounds of PCR and the conditions were the same as those used for the first round. The DNA obtained after this second round was digested with the restriction enzymes Hind III and Xba I using standard methodology. Cesium chloride-purified pRc/CMV (Invitrogen) was also digested with Hind III and Xba I using standard methodology. The products of the two digests were resolved on a 1% low melt agarose gel. The human B2 receptor DNA (approximately 1.1 kb) and the pRc/CMV DNA (approximately 5.5 kb) were excised from the gel. The gel slices containing these DNAs were heated at 65° C. and aliquots combined in a reaction containing T4 DNA ligase. The reaction was incubated overnight at 15° C.
An aliquot of this reaction was used to transform frozen competent E. coli DH5α cells (GibcoBRL). Transformants containing the human B2 receptor DNA were selected on LB+amp plates. One of the transformants was selected and the sequence of the human B2 receptor DNA insert determined using the Sequenase enzyme (United States Biochemical) according to the manufacturer's instructions. This sequence was compared to the sequence of Hess et al (Biochemical and Biophysical Research Communications 184:260 1992)). […] The human BK2 receptor-pRc/CMV plasmid was transfected into CHO-k1 cells using the Lipofectamine reagent (GibcoBRL).
Cells containing the receptor were grown to confluence and harvested by scraping into PBS and homogenized. Membranes were prepared by centrifugation in 25 mM TES pH6.8 containing 1 mM 1.10 Phenanthroline. The final pellet was resuspended in assay buffer (25 mM TES, 1 mM 1.10 Phenanthroline, 1 mM DTT, […] Captopril, 0.1% BSA pH=6.8) and frozen. […] Incubation was carried out at room temperature for 45 min. The assay was terminated by filtration through a polyethylenimine soaked G-A filter. Radioactivity was measured on a Wallac 1450 MicroBeta LSC.
The Kd for the receptor was determined by kinetic analysis of on and off rates utilizing a single exponential decay off rate. Ki 's for compounds were calculated using the following equation: Ki =IC50 /(1+[L]/Kd), where L=free ligand concentration.

[2] = tested on: isolated rat uterus
Text: (§1) A change of one unit of pA2 value represents an order of magnitude change in potency.
(§2) On isolated smooth muscles, agonist potency is given as percent of BK potency; antagonist potency is given as pA2, and is underlined. In blood pressure assays, the number is the dose of peptide in micrograms that causes 50% reduction in the effect of BK intraarterially administered as a bolus mixture in a 500 g male rat; Ag indicates unquantitated agonist activity; Ant indicates unquantitated antagonist activity.

[3] = tested on: guinea pig ileum
Text: as §1, §2

[4] = target: T2, B1 receptors (Oryctolagus cuniculus, UniProt P48748); assay: B1 receptor bioassay, rabbit aorta strips contracted with des-Arg9-BK; format: cell-based; details: 50% reduction of sustained contraction to 10^-7 M des-Arg9-BK; read-out: Rabbit Aorta p IC50 B1 receptors (converted)
T2 construct: The thorax was opened and the thoracic aorta carefully removed; from tissue; host or cells: rabbit thoracic aorta spiral strips
T2 sequence (P48748 1-352): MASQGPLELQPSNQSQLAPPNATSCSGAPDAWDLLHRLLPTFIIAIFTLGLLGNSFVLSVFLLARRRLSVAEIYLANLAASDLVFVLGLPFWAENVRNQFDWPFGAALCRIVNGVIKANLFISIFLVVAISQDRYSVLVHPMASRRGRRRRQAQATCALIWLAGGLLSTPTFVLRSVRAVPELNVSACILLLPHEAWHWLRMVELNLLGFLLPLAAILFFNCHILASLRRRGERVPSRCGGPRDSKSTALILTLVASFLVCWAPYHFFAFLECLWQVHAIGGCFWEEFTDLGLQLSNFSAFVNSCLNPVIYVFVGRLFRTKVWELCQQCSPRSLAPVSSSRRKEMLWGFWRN
Method: Male New Zealand white rabbits, weight range 2-3 kg, were killed by an overdose of pentobarbital i.v. The thorax was opened and the thoracic aorta carefully removed. […] The tissues were placed under 1 gm isometric tension and allowed to equilibrate for 1H. At time 1h, a concentration-effect curve was constructed to the selective B1 agonist des-Arg^9 -BK. This was repeated at time 3 hours. […] Once the contraction was sustained, the compound to be assayed was applied to the tissue bath in a cumulative manner. The concentration of the compound which produced a 50% reduction of the sustained contraction was calculated. The negative logarithm of this concentration was calculated and expressed as the […].

[5] = CHO clone S34f membranes, 0.3 nM 3H-Bradykinin, room temperature 45 min, read-out: Human Receptor Clone B2 receptor binding (Ki) (converted)

Structure (SMILES)	Ki [1, 5] [nM]	Uterus Activity, antagonist potency given as pA2 [2]	Ileum Activity, antagonist potency given as pA2 [3]	IC50 [4] [nM]	Ki [1] [nM]
N=C(N)NCCC[C@H](NC(=O)[C@@H]1C[C@@H]2CCCC[C@@H]2N1C(=O)[C@H](NC(=O)[C@H](CO)NC(=O)[C@@H](NC(=O)CNC(=O)[C@@H]1C[C@@H](O)CN1C(=O)[C@@H]1CCCN1C(=O)[C@H](CCCNC(=N)N)NC(=O)[C@@H](CCCNC(=N)N)NC(=O)C12CC3CC(CC(C3)C1)C2)C1Cc2ccccc2C1)C1Cc2ccccc2C1)C(=O)O [Compound 2, Aca-DArg-Arg-Pro-Hyp-Gly-Iglb-Ser-DIg lb-Oic-Arg]	0.0447	7.5	7.8	1780	
N=C(N)NCCC[C@H](NC(=O)[C@@H]1C[C@@H]2CCCC[C@@H]2N1C(=O)[C@H](NC(=O)[C@H](CO)NC(=O)[C@@H](NC(=O)CNC(=O)[C@@H]1C[C@@H](O)CN1C(=O)[C@@H]1CCCN1C(=O)[C@H](CCCNC(=N)N)NC(=O)[C@@H](CCCNC(=N)N)NC(=O)C1=CN2CCC1CC2)C1Cc2ccccc2C1)C1Cc2ccccc2C1)C(=O)O [Compound 3, Dhg-DArg-Arg-Pro-Hyp-Gly-Iglb-Ser-DIg lb-Oic-Arg]	0.00141	7.4	7.6	1170	
N=C(N)NCCC[C@H](NC(=O)[C@@H]1C[C@@H]2CCCC[C@@H]2N1C(=O)[C@H](NC(=O)[C@H](CO)NC(=O)[C@H](Cc1cccs1)NC(=O)CNC(=O)[C@@H]1C[C@@H](O)CN1C(=O)[C@@H]1CCCN1C(=O)[C@@H](N)CCCNC(=N)N)C1Cc2ccccc2C1)C(=O)O [Compound 5, Arg-Pro-Hyp-Gly-Thi-Ser-DIglb-Oic-Arg] (H-RP[Hyp]G[2Thi]S[dIgl][Oic]R-OH)	0.0692		7.7	1550	
N=C(N)NCCC[C@@H](N)C(=O)N[C@@H](CCCNC(=N)N)C(=O)N1CCC[C@H]1C(=O)N1C[C@H](O)C[C@H]1C(=O)NCC(=O)N[C@@H](Cc1cccs1)C(=O)N[C@@H](CO)C(=O)N(CC(=O)N1[C@H](C(=O)N[C@@H](CCCNC(=N)N)C(=O)O)C[C@@H]2CCCC[C@@H]21)C1Cc2ccccc2C1 [Compound 16, DArg-Arg-Pro-Hyp-Gly-Thi-Ser-Nigb-Oic-Arg]	0.309	6.8	7.0		
N=C(N)NCCC[C@@H](N)C(=O)N[C@@H](CCCNC(=N)N)C(=O)N1CCC[C@H]1C(=O)N1C[C@H](O)C[C@H]1C(=O)NCC(=O)N[C@@H](Cc1cccs1)C(=O)N[C@@H](CO)C(=O)N[C@@H](C(=O)N1Cc2ccccc2C[C@H]1C(=O)N[C@@H](CCCNC(=N)N)C(=O)O)C1Cc2ccccc2C1 [Compound 22, DArg-Arg-Pro-Hyp-Gly-Thi-Ser-DIglb-Tic-Arg]	0.0126	7.0	6.8	1780	
N=C(N)NCCC[C@@H](N)C(=O)N[C@@H](CCCNC(=N)N)C(=O)N1CCC[C@H]1C(=O)N1C[C@H](O)C[C@H]1C(=O)NCC(=O)N[C@@H](Cc1cccs1)C(=O)N[C@@H](CO)C(=O)N1Cc2ccccc2C[C@@H]1C(=O)N(CC(=O)N[C@@H](CCCNC(=N)N)C(=O)O)C1Cc2ccccc2C1 [Compound 23, DArg-Arg-Pro-Hyp-Gly-Thi-Ser-DTic-Nigb-Arg]	0.0158	8.3	7.2	> 10000	
Cc1ccc(C[C@@H](NC(=O)CNC(=O)[C@@H]2C[C@@H](O)CN2C(=O)[C@@H]2CCCN2C(=O)[C@H](CCCNC(=N)N)NC(=O)[C@H](N)CCCNC(=N)N)C(=O)N[C@@H](CO)C(=O)N[C@@H](C(=O)N2[C@H](C(=O)N[C@@H](CCCNC(=N)N)C(=O)O)C[C@@H]3CCCC[C@@H]32)C2Cc3ccccc3C2)c(C)c1 [Compound 27, DArg-Arg-Pro-Hyp-Gly-DDMF-Ser-DIglb-Oic-Arg]	0.178	8.0	6.9	> 10000	
N=C(N)NCCC[C@@H](N)C(=O)N[C@@H](CCCNC(=N)N)C(=O)N1CCC[C@H]1C(=O)N1C[C@H](O)C[C@H]1C(=O)NCC(=O)N[C@H](Cc1cccs1)C(=O)N[C@@H](CO)C(=O)N[C@@H](C(=O)N1[C@H](C(=O)N[C@@H](CCCNC(=N)N)C(=O)O)C[C@@H]2CCCC[C@@H]21)C1Cc2ccccc2C1 [Compound 31, DArg-Arg-Pro-Hyp-Gly-DThi-Ser-DIglb-Oic-Arg]				> 10000	0.01
CN(C(=O)[C@H](CCCNC(=N)N)NC(=O)[C@H](N)CCCNC(=N)N)[C@@H](Cc1ccccc1)C(=O)N1C[C@H](O)C[C@H]1C(=O)NCC(=O)N[C@H](C(=O)N[C@@H](CO)C(=O)N[C@@H](C(=O)N1[C@H](C(=O)N[C@@H](CCCNC(=N)N)C(=O)O)C[C@@H]2CCCC[C@@H]21)C1Cc2ccccc2C1)C1Cc2ccccc2C1 [Compound 45, DArg-Arg-NMF-Hyp-Gly-Iglb-Ser-DIglb-Oic-Arg] (H-[dR]R[NMeF][Hyp]G[Igl]S[dIgl][Oic]R-OH)	0.141			2880	
N=C(N)NCCC[C@H](NC(=O)[C@@H]1C[C@@H]2CCCC[C@@H]2N1C(=O)[C@H](NC(=O)[C@H](CO)NC(=O)[C@H](Cc1cccs1)NC(=O)CNC(=O)[C@@H]1C[C@@H](O)CN1C(=O)[C@@H]1CCCN1C(=O)[C@H](CCCNC(=N)N)NC(=O)[C@@H](CCCNC(=N)N)NC(=O)C12CC3CC(CC(C3)C1)C2)C1Cc2ccccc2C1)C(=O)O [Compound 55, Aca-DArg-Arg-Pro-Hyp-Gly-Thi-Ser-DIglb-Oic-Arg]		9.2	8.4	269	
N=C(N)NCCC[C@H](NC(=O)[C@@H]1C[C@@H]2CCCC[C@@H]2N1C(=O)[C@H](NC(=O)[C@H](COS(=O)(=O)O)NC(=O)[C@H](Cc1cccs1)NC(=O)CNC(=O)[C@@H]1C[C@@H](O)CN1C(=O)[C@@H]1CCCN1C(=O)[C@H](CCCNC(=N)N)NC(=O)[C@@H](CCCNC(=N)N)NC(=O)C12CC3CC(CC(C3)C1)C2)C1Cc2ccccc2C1)C(=O)O [Compound 61, Aca-DArg-Arg-Pro-Hyp-Gly-Thi-Ser(SO)-DIglb-Oic-Arg]	4.07		7.5	4170	
